Data as given in patent US7872133B2, “Tricyclic heterocycle compound” (Ono Pharmaceutical Co., Ltd., priority 2003, dated 2011).

How the values were obtained:
MBR = molecular target: T1, MBR (Rattus norvegicus, UniProt P16257); experiment: Receptor Binding Experiment (competition with [3H]PK11195); settings: rat brain membrane preparation, [3H]PK11195 as MBR selective ligand; Ki by Cheng and Prusoff formula
T1 construct: from tissue; host or cells: whole brain without cerebellum of male Wistar rats, crude membrane preparation
Procedure: The affinity of the compounds in the present invention to MBR was determined using rat brain membrane preparation. In addition, the measurement in the present invention was improved the accuracy of measurement and the sensitivity of measurement for evaluating the compounds in the present invention as follows. After male Wister rats were decapitated to extirpate the whole brain and cerebellums were removed. They were homogenized in ice-cold 50 mmol/L Tris-HCL buffer solution (pH7.4), centrifuged and the obtained pellets were washed. The pellets resuspended and adjusted to about 1 mg/mL were used as rat brain membrane preparations for binding assay. The binding assay were experimented using [^3H]PK11195 as a MBR selective ligand. […]
To determine the amount of total binding in saturation binding experiment, membrane preparations, various concentrations of [^3H]PK11195, final concentration: 0.5 vol % dimethylsulfoxide (DMSO) and 50 mmol/L Tris-HCL buffer solution (pH7.4) were mixed (total volume 200 μL) and were incubated for 1 hour at room temperature. […] The filter was dried and then the radioactivity on the filter was measured by liquid scintillation counter. The data obtained by the binding experiments were Scatchard-analyzed using analysis software, KELL (Ver. 6, BIOSOFT) and the dissociation constant (KD value) was determined. […]

male Wistar rats = experiment: Evaluation of Anti-Stress Effects (psychological stress, number of defecation); type: in vivo, rat; settings: 10 mg/kg orally 30 minutes before stressor; counted 1 hour later; media treated group average 8.0 feces
Procedure: Psychological stress was loaded to male Wistar rats (Brain Research, 641, 21-28, 1994). Water was stored up to the depth of about 10 cm in a container where the platform was set at the center. A stressor began to load to rats 30 minutes after the vehicle or the compound in the present invention (the compound of Example 17) were orally administered by dosage of 10 mg/kg. The number of defecation was counted 1 hour later (10 per each group). Rats without administration and load of stressor rarely defecated for 1 hour. In contrast, remarkable defecation was admitted in media treated group (average 8.0 feces) loaded by stressor. […] The results clarified that the compounds in the present invention had anti-stress effects.

Ki (MBR): 21 nM
SMILES: CC(=O)N1CC2(CC2)c2c([nH]c3ccccc23)C1c1cccc(F)c1 (stereo not drawn) [Example 17, 2-acetyl-1-(3-fluorophenyl)-1,2,3,9-tetrahydrospiro[β-carboline-4,1′-cyclopropane]]
number of defecation (average) (male Wistar rats): 5.4 feces
